Experimental data from ChEMBL document CHEMBL1124694, “C2,N6-disubstituted adenosines: synthesis and structure-activity relationships” (J Med Chem, 1989).
pKi: −log10 of the molar value.

Legend:
Adenosine receptor A1 = biological target: T1, Adenosine receptor A1 (Rattus norvegicus, UniProt P25099)
T1 sequence (P25099 whole entry): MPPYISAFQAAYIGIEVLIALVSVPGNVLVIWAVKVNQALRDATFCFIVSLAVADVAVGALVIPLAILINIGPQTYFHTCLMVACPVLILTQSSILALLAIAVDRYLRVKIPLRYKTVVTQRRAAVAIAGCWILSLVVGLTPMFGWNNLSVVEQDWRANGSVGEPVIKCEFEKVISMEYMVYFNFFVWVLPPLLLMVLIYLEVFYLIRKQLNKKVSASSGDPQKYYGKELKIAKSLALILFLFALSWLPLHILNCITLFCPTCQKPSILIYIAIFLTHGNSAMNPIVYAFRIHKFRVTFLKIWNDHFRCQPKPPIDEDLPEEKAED

Adenosine A2 receptor [1] = biological target: T2, Adenosine A2 receptor (Rattus norvegicus, UniProt P29276+P30543)
Adenosine A2 receptor [2] = biological target: T2, Adenosine A2 receptor; assay: Inhibition of [3H]NECA binding to Adenosine A2 receptor of rat striatal membranes; type: cell membranes, Membrane

SMILES: OC[C@H]1O[C@@H](n2cnc3c(NC4CC4)ncnc32)[C@H](O)[C@@H]1O
- pKi (Adenosine receptor A1): 8.49

SMILES: OC[C@H]1O[C@@H](n2cnc3c(NCc4cccc5ccccc45)nc(NC4CCCCC4)nc32)[C@H](O)[C@@H]1O
- Ki (Adenosine A2 receptor [1]): 10.3 µM
- pKi (Adenosine receptor A1): 4.35

SMILES: OC[C@H]1OC(n2cnc3c(NCC(c4ccccc4)c4ccccc4)nc(Nc4ccccc4)nc32)[C@H](O)[C@@H]1O (stereo not given in full)
- Ki (Adenosine A2 receptor [1]): 0.65 µM
- pKi (Adenosine receptor A1): 5.57

SMILES: OC[C@H]1OC(n2cnc3c(NCc4cccc5ccccc45)nc(Nc4ccccc4)nc32)[C@H](O)[C@@H]1O (stereo not given in full)
- Ki (Adenosine A2 receptor [1]): 0.23 µM
- pKi (Adenosine receptor A1): 6.25

SMILES: CC(Cc1ccccc1)Nc1nc(Nc2ccccc2)nc2c1ncn2C1O[C@H](CO)[C@@H](O)[C@H]1O (stereo not given in full)
- Ki (Adenosine A2 receptor [1]): 0.24 µM
- pKi (Adenosine receptor A1): 6.82

SMILES: COc1cc(OC)cc(C(CNc2nc(Nc3ccccc3)nc3c2ncn3C2O[C@H](CO)[C@@H](O)[C@H]2O)c2ccccc2)c1 (stereo not given in full)
- Ki (Adenosine A2 receptor [1]): 0.47 µM
- pKi (Adenosine receptor A1): 5.05

SMILES: CC(O)CNc1ncnc2c1ncn2C1O[C@H](CO)[C@@H](O)[C@H]1O (stereo not given in full)
- Ki (Adenosine A2 receptor [1]): 9.3 µM
- pKi (Adenosine receptor A1): 8.30

SMILES: OC[C@H]1OC(n2cnc3c(NC4CC4)nc(Nc4ccccc4)nc32)[C@H](O)[C@@H]1O (stereo not given in full)
- Ki (Adenosine A2 receptor [1]): 0.96 µM
- pKi (Adenosine receptor A1): 7.17

SMILES: OC[C@H]1OC(n2cnc3c(NCC(c4ccccc4)c4ccccc4)nc(Sc4ccccc4)nc32)[C@H](O)[C@@H]1O (stereo not given in full)
- Ki (Adenosine A2 receptor [1]): 0.8 µM
- pKi (Adenosine receptor A1): 6.08

SMILES: CC(Cc1ccccc1)Nc1nc(N)nc2c1ncn2C1O[C@H](CO)[C@@H](O)[C@H]1O (stereo not given in full)
- Ki (Adenosine A2 receptor [1]): 1.53 µM
- pKi (Adenosine receptor A1): 7.72

SMILES: CC(Cc1ccccc1)Nc1nc(Sc2ccccc2)nc2c1ncn2C1O[C@H](CO)[C@@H](O)[C@H]1O (stereo not given in full)
- Ki (Adenosine A2 receptor [1]): 1 µM
- pKi (Adenosine receptor A1): 6.68

SMILES: Nc1nc(S(=O)(=O)c2ccccc2)nc2c1ncn2C1O[C@H](CO)[C@@H](O)[C@H]1O (stereo not given in full)
- Ki (Adenosine A2 receptor [2]): 1.23 µM
- pKi (Adenosine receptor A1): 5.59

SMILES: OC[C@H]1OC(n2cnc3c(NC4CC5CCC4C5)nc(Nc4ccccc4)nc32)[C@H](O)[C@@H]1O (stereo not given in full)
- Ki (Adenosine A2 receptor [1]): 0.472 µM
- pKi (Adenosine receptor A1): 8.11

SMILES: Nc1nc(NC2CCCC2)c2ncn(C3O[C@H](CO)[C@@H](O)[C@H]3O)c2n1 (stereo not given in full)
- Ki (Adenosine A2 receptor [1]): 6.1 µM
- pKi (Adenosine receptor A1): 8.08

SMILES: OC[C@H]1OC(n2cnc3c(NCc4cccc5ccccc45)nc(Sc4ccccc4)nc32)[C@H](O)[C@@H]1O (stereo not given in full)
- Ki (Adenosine A2 receptor [1]): 0.61 µM
- pKi (Adenosine receptor A1): 5.83

SMILES: OC[C@H]1OC(n2cnc3c(NCC4c5ccccc5-c5ccccc54)nc(Nc4ccccc4)nc32)[C@H](O)[C@@H]1O (stereo not given in full)
- Ki (Adenosine A2 receptor [1]): 2.1 µM
- pKi (Adenosine receptor A1): 5.05

SMILES: OC[C@H]1OC(n2cnc3c(NCc4ccccc4)nc(Nc4ccccc4)nc32)[C@H](O)[C@@H]1O (stereo not given in full)
- Ki (Adenosine A2 receptor [1]): 7.1 µM
- pKi (Adenosine receptor A1): 5.79

SMILES: CC(O)CNc1nc(Nc2ccccc2)nc2c1ncn2C1O[C@H](CO)[C@@H](O)[C@H]1O (stereo not given in full)
- Ki (Adenosine A2 receptor [1]): 1.7 µM
- pKi (Adenosine receptor A1): 7.30

SMILES: O=S(=O)(c1ccccc1)c1nc(NCc2cccc3ccccc23)c2ncn(C3O[C@H](CO)[C@@H](O)[C@H]3O)c2n1 (stereo not given in full)
- Ki (Adenosine A2 receptor [1]): 0.27 µM
- pKi (Adenosine receptor A1): 5.70

SMILES: COc1cc(OC)cc(C(CNc2nc(Nc3ccccc3)nc3c2ncn3C2O[C@H](CO)[C@@H](O)[C@H]2O)c2ccccc2C)c1 (stereo not given in full)
- Ki (Adenosine A2 receptor [1]): 0.34 µM
- pKi (Adenosine receptor A1): 4.99

SMILES: Nc1nc(NCC2c3ccccc3-c3ccccc32)c2ncn(C3O[C@H](CO)[C@@H](O)[C@H]3O)c2n1 (stereo not given in full)
- Ki (Adenosine A2 receptor [1]): 0.022 µM
- pKi (Adenosine receptor A1): 7.73

SMILES: Nc1nc(NCC(c2ccccc2)c2ccccc2)c2ncn(C3O[C@H](CO)[C@@H](O)[C@H]3O)c2n1 (stereo not given in full)
- Ki (Adenosine A2 receptor [1]): 0.135 µM
- pKi (Adenosine receptor A1): 7.21

SMILES: Nc1nc(Sc2ccccc2)nc2c1ncn2C1O[C@H](CO)[C@@H](O)[C@H]1O (stereo not given in full)
- Ki (Adenosine A2 receptor [2]): 2 µM
- pKi (Adenosine receptor A1): 5.66

SMILES: COc1ccc(-c2nc(N)c3ncn(C4O[C@H](CO)[C@@H](O)[C@H]4O)c3n2)cc1 (stereo not given in full)
- Ki (Adenosine A2 receptor [2]): 0.6 µM
- pKi (Adenosine receptor A1): 5.88

SMILES: OC[C@H]1OC(n2cnc3c(NC4CCCC4)nc(Nc4ccccc4)nc32)[C@H](O)[C@@H]1O (stereo not given in full)
- Ki (Adenosine A2 receptor [1]): 0.144 µM
- pKi (Adenosine receptor A1): 7.91

SMILES: O=S(=O)(c1ccccc1)c1nc(NC2CCCC2)c2ncn(C3O[C@H](CO)[C@@H](O)[C@H]3O)c2n1 (stereo not given in full)
- Ki (Adenosine A2 receptor [1]): 2.3 µM
- pKi (Adenosine receptor A1): 7.02

SMILES: OC[C@H]1OC(n2cnc3c(NC4CCCC4)nc(Sc4ccccc4)nc32)[C@H](O)[C@@H]1O (stereo not given in full)
- Ki (Adenosine A2 receptor [1]): 4 µM
- pKi (Adenosine receptor A1): 7.43

SMILES: OC[C@H]1OC(n2cnc3c(NN4CCCC4)nc(Nc4ccccc4)nc32)[C@H](O)[C@@H]1O (stereo not given in full)
- Ki (Adenosine A2 receptor [1]): 58 µM
- pKi (Adenosine receptor A1): 4.74

SMILES: OC[C@H]1OC(n2cnc3c(NC4CCCCC4)nc(Sc4ccccc4)nc32)[C@H](O)[C@@H]1O (stereo not given in full)
- Ki (Adenosine A2 receptor [1]): 6.7 µM
- pKi (Adenosine receptor A1): 6.80

SMILES: OC[C@H]1OC(n2cnc3c(NCCc4ccccc4)nc(NCCc4ccccc4)nc32)[C@H](O)[C@@H]1O (stereo not given in full)
- Ki (Adenosine A2 receptor [1]): 2 µM
- pKi (Adenosine receptor A1): 5.79

SMILES: O=S(=O)(c1ccccc1)c1nc(NC2CCCCC2)c2ncn(C3O[C@H](CO)[C@@H](O)[C@H]3O)c2n1 (stereo not given in full)
- Ki (Adenosine A2 receptor [1]): 5.1 µM
- pKi (Adenosine receptor A1): 6.38

SMILES: OC[C@H]1OC(n2cnc3c(NCc4cccc5ccccc45)nc(F)nc32)[C@H](O)[C@@H]1O (stereo not given in full)
- Ki (Adenosine A2 receptor [1]): 0.0149 µM
- pKi (Adenosine receptor A1): 7.74

SMILES: OC[C@H]1OC(n2cnc3c(NC4CCCCC4)nc(Nc4ccccc4)nc32)[C@H](O)[C@@H]1O (stereo not given in full)
- Ki (Adenosine A2 receptor [1]): 0.45 µM
- pKi (Adenosine receptor A1): 7.27

SMILES: OC[C@H]1OC(n2cnc3c(NCc4cccc5ccccc45)nc(NCc4ccccc4)nc32)[C@H](O)[C@@H]1O (stereo not given in full)
- Ki (Adenosine A2 receptor [1]): 0.35 µM
- pKi (Adenosine receptor A1): 6.28

SMILES: Nc1nc(NC2CCCCC2)c2ncn(C3O[C@H](CO)[C@@H](O)[C@H]3O)c2n1 (stereo not given in full)
- Ki (Adenosine A2 receptor [1]): 3.5 µM
- pKi (Adenosine receptor A1): 7.71

SMILES: Nc1nc(=O)[nH]c2c1ncn2[C@@H]1O[C@H](CO)[C@@H](O)[C@H]1O [ISOGUANOSINE]
- Ki (Adenosine A2 receptor [2]): 0.33 µM
